Source: US10696638B2, “Compounds for inhibiting AGC kinase and pharmaceutical compositions comprising the same” (Industrial Technology Research Institute, priority 2017, dated 2020)
Like-named read-outs stand apart in the source and are kept apart here.

Biological target: ROCK2 (Homo sapiens (Human), UniProt O75116)
Assay: Rho-kinase inhibition ELISA (ROCK active-II, MYPT1 substrate)
Type: biochemical
Conditions: classes given as pIC50, ATP 250 μM
Description: To measure Rho-kinase inhibition, IC50 values were determined according to the following ELISA protocol:
ROCK Substrate Coated Plate (Part No 241601): One strip well 96-well plate pre-coated with recombinant MYPT1.
Buffer: 25 mM Tris, pH 7.5, 10 mM MgCl2, 5 mM Glycerol-2-Phosphate, 0.1 mM Na3VO4; 1% DMSO; 2.5 mM DTT; (Enzyme: ROCK active-II) (Cell Biolabs, Catalog #STA-406, Part No. 241505) 0.1 ng/μl.
ATP Solution (Part No. 241604): 100 mM ATP. Final concentration of ATP in reaction mixture: 250 μM.
Secondary Antibody, HRP Conjugate (Part No. 231003).
Biotinylated substrate, diluted to 0.25 μM with buffer described above (without ATP).
1. Purified kinase or cell lysate sample can be used directly in the kinase assay or further diluted with 1× Kinase Buffer. Each sample should be assayed in duplicate.
2. Add 90 μL of the diluted active ROCK-II positive control or unknown ROCK samples to the wells of the substrate plate.
3. Initiate the kinase reaction by adding 10 μL of the 10× Kinase Reaction Buffer containing DTT and ATP. Mix well.
4. Cover with a plate cover and incubate the wells at 30° C. for 30-60 minutes with gentle agitation.
5. Stop kinase reaction by flicking out the content or by adding 50 μL of 0.5M EDTA, pH 8.0, to each well.
6. Remove the plate cover and empty wells. Wash microwell strips 3 times with 250 μL 1× Wash Buffer per well with thorough aspiration between each wash. After the last wash, empty wells and tap microwell strips on absorbent pad or paper towel to remove excess 1× Wash Buffer.
7. Add 100 μL of the diluted anti-phospho-MYPT1 (Thr696) antibody to each well.
8. Cover with the plate cover and incubate at room temperature for 1 hour on an orbital shaker.
9. Remove the plate cover and empty wells. Wash the strip wells 3 times according to step 6 above.
10. Add 100 μL of the diluted HRP-conjugated secondary antibody to each well.
11. Cover with the plate cover and incubate at room temperature for 1 hour on an orbital shaker.
12. Remove the plate cover and empty wells. Wash microwell strips 3 times according to step 6 above. Proceed immediately to the next step.
13. Warm Substrate Solution to room temperature. Add 100 μL of Substrate Solution to each well, including the blank wells. Incubate at room temperature for 5-20 minutes on an orbital shaker.
14. Stop the enzyme reaction by adding 100 μL of Stop Solution into each well, including the blank wells. Results should be read immediately (color will fade over time).
15. Read absorbance of each microwell on a spectrophotometer using 450 nm as the primary wave length.
The given activity (shown in Table 1 and Table 2) is denoted as the negative logarithm of the IC50 (pIC50) as follows: […]

Chain of ROCK2 (O75116 whole entry, species assumed): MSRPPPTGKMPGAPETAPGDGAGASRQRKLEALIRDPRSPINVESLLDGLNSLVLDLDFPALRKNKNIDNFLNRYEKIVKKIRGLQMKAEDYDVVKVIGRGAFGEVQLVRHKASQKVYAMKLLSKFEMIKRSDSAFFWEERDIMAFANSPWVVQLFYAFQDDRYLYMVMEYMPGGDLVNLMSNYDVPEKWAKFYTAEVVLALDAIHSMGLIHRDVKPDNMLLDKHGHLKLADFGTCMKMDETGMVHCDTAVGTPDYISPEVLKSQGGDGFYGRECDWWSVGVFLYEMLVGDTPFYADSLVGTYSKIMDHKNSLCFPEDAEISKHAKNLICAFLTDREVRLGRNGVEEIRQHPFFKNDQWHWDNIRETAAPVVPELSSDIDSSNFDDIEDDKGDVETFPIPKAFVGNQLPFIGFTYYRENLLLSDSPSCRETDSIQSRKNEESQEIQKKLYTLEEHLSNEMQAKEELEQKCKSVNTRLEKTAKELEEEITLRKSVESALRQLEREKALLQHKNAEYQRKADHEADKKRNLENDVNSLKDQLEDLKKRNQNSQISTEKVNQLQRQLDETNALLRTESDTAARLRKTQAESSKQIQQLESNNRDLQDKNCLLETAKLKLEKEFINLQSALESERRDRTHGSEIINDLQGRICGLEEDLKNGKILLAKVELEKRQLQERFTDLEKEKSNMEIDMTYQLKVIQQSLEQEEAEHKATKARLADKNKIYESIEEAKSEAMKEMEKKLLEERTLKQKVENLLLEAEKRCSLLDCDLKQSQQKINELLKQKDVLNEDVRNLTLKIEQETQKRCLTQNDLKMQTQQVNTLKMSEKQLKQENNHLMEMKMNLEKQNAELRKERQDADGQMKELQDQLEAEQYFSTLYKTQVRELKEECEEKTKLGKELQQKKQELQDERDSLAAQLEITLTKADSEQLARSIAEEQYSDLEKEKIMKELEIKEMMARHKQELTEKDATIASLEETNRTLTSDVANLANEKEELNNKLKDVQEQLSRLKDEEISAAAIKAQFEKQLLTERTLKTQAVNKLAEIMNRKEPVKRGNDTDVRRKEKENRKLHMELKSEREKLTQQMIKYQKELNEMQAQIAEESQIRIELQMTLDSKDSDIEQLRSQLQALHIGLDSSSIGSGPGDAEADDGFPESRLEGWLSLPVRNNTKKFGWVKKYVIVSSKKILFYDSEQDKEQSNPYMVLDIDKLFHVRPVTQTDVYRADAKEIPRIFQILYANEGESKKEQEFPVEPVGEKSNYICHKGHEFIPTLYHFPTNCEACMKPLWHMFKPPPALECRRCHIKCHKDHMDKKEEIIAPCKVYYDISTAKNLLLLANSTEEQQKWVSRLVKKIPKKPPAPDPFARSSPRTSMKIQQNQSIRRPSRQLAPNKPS

An IC50 (Table 2, read-out: ROCK IC50) of 10 to 100 nM was found for N#C/N=C(/Nc1ccc2cnccc2c1)N(CCN)Cc1ccc(F)cc1 [compound 30] in this work.
For NCCN(Cc1ccc(O)cc1)C(=O)Nc1ccc2cnccc2c1 [compound 13], the “ROCK IC50” value (Table 2) was “+ (pIC50<6.0)”.
In the case of NCCN(Cc1ccc(Cl)cc1)C(=S)Nc1ccc2cnccc2c1 [compound 31], the “ROCK IC50” value (Table 2) is reported as “++++ (pIC50>8.0)”.
An IC50 (Table 2, read-out: ROCK IC50) of 100 to 1000 nM was found for NCCN(Cc1cccc(F)c1)C(=S)Nc1ccc2cnccc2c1 [compound 28] in this work.
With NCC(NC(=O)Nc1ccc2cnccc2c1)c1ccc(F)cc1 (centres unmarked) [compound 25] the “ROCK IC50” value (Table 2) was “++++ (pIC50>8.0)”.
An IC50 (Table 2, read-out: ROCK IC50) of 100 to 1000 nM was found for Cc1ccc(CN(CCN)C(=S)Nc2ccc3cnccc3c2)cc1 [compound 32] in this work.
With NCC(NC(=S)Nc1ccc2cnccc2c1)c1ccc(F)cc1 (centres unmarked) [compound 26] the “ROCK IC50” value (Table 2) was “++++ (pIC50>8.0)”.
Cl.NCC(NC(=S)Nc1ccc2cnccc2c1)c1cccc2ccccc12 (centres unmarked) [compound 39] was tested, and the “ROCK IC50” value (Table 2) was “++++ (pIC50>8.0)”.
An IC50 (Table 1, read-out: ROCK2 IC50) of 100 to 1000 nM was found for COc1cccc(CN(CCN(C)C)C(=O)Nc2ccc3cnccc3c2)c1 [compound 3] in this work.
An IC50 (Table 2, read-out: ROCK IC50) of 10 to 100 nM was found for N#C/N=C(/Nc1ccc2cnccc2c1)N(CCN)Cc1cccc(F)c1 [compound 29] in this work.
In the case of N#C/N=C(/Nc1ccc2cnccc2c1)N(CCN)Cc1ccccc1 [compound 36], the “ROCK IC50” value (Table 2) is reported as “++++ (pIC50>8.0)”.
An IC50 (Table 2, read-out: ROCK IC50) of 100 to 1000 nM was found for CN(C)CCN(Cc1ccccc1)C(=O)Nc1cccc2cnccc12 [compound 6] in this work.
COc1cccc(C(CN)NC(=S)Nc2ccc3cnccc3c2)c1 (centres unmarked) [compound 35] was tested, and the “ROCK IC50” value (Table 2) was “++++ (pIC50>8.0)”.
An IC50 (Table 2, read-out: ROCK IC50) of 100 to 1000 nM was found for NCCN(Cc1ccc(Cl)c(F)c1)C(=S)Nc1ccc2cnccc2c1 [compound 33] in this work.
With COc1ccc(CN(CCN)/C(=N\C#N)Nc2ccc3cnccc3c2)cc1 [compound 37] the “ROCK IC50” value (Table 2) was “++++ (pIC50>8.0)”.
An IC50 (Table 2, read-out: ROCK IC50) of 100 to 1000 nM was found for CN(C)CCN(Cc1ccc(Cl)cc1)C(=O)Nc1cccc2cnccc12 [compound 7] in this work.
An IC50 (Table 2, read-out: ROCK IC50) of 100 to 1000 nM was found for NCCN(Cc1ccc(F)cc1)C(=S)Nc1ccc2cnccc2c1 [compound 19] in this work.
NCC(NC(=S)Nc1ccc2cnccc2c1)c1ccccc1 (centres unmarked) [compound 24] was tested, and the “ROCK IC50” value (Table 2) was “++++ (pIC50>8.0)”.
CSc1ccc(CN(CCN)C(=O)Nc2ccc3cnccc3c2)cc1 [compound 17] was tested, and the “ROCK IC50” value (Table 2) was “+ (pIC50<6.0)”.
An IC50 (Table 2, read-out: ROCK IC50) of 100 to 1000 nM was found for CC(c1ccc(F)cc1)N(CCN)C(=O)Nc1ccc2cnccc2c1 (centres unmarked) [compound 22] in this work.
An IC50 (Table 1, read-out: ROCK2 IC50) of 10 to 100 nM was found for CN(C)CCN(Cc1ccc(Cl)cc1)C(=O)Nc1ccc2cnccc2c1 [compound 1] in this work.
For NCCN(Cc1ccc(F)cc1)C(=O)Nc1cccc2cnccc12 [compound 20], the “ROCK IC50” value (Table 2) was “+ (pIC50<6.0)”.
An IC50 (Table 2, read-out: ROCK IC50) of 10 to 100 nM was found for N#C/N=C(\Nc1ccc2cnccc2c1)N(CCN)Cc1ccc(Br)cc1 [compound 34] in this work.
An IC50 (Table 2, read-out: ROCK IC50) of 100 to 1000 nM was found for NCCN(Cc1ccc(F)cc1)C(=O)Nc1ccc2cnccc2c1 [compound 8] in this work.
For COC(=O)c1ccc(CN(CCN(C)C)C(=O)Nc2cccc3cnccc23)cc1 [compound 10], the “ROCK IC50” value (Table 2) was “+ (pIC50<6.0)”.
An IC50 (Table 2, read-out: ROCK IC50) of 100 to 1000 nM was found for NCCN(Cc1ccccc1)C(=O)Nc1ccc2cnccc2c1 [compound 14] in this work.
An IC50 (Table 1, read-out: ROCK2 IC50) of 10 to 100 nM was found for CN(C)CCN(Cc1ccc(F)cc1)C(=O)Nc1ccc2cnccc2c1 [compound 2] in this work.
An IC50 (Table 1, read-out: ROCK2 IC50) of 10 to 100 nM was found for O=C(Nc1ccc2cnccc2c1)N[C@@H](CO)c1ccccc1 [compound 6] in this work.
An IC50 (Table 2, read-out: ROCK IC50) of 100 to 1000 nM was found for NCCN(Cc1ccccc1)C(=S)Nc1ccc2cnccc2c1 [compound 27] in this work.
COC(=O)c1ccc(CN(CCN)C(=O)Nc2ccc3cnccc3c2)cc1 [compound 18] was tested, and the “ROCK IC50” value (Table 2) was “+ (pIC50<6.0)”.
An IC50 (Table 2, read-out: ROCK IC50) of 10 to 100 nM was found for CC(c1ccc(F)cc1)N(CCN)C(=O)Nc1ccc2cnccc2c1 (centres unmarked) [compound 23] in this work.
CN(C)CCN(Cc1ccc(CO)cc1)C(=S)Nc1cccc2cnccc12 [compound 12] was tested, and the “ROCK IC50” value (Table 2) was “+ (pIC50<6.0)”.
An IC50 (Table 2, read-out: ROCK IC50) of 100 to 1000 nM was found for NCCN(Cc1ccc(Br)cc1)C(=O)Nc1ccc2cnccc2c1 [compound 15] in this work.
An IC50 (Table 1, read-out: ROCK2 IC50) of 100 to 1000 nM was found for CN(C)CCN(Cc1cccc(F)c1)C(=O)Nc1ccc2cnccc2c1 [compound 8] in this work.
An IC50 (Table 2, read-out: ROCK IC50) of 100 to 1000 nM was found for CN(C)CCN(Cc1ccc(F)cc1)C(=S)Nc1cccc2cnccc12 [compound 11] in this work.
An IC50 (Table 1, read-out: ROCK2 IC50) of 100 to 1000 nM was found for COc1cccc(CN(CCO)C(=O)Nc2ccc3cnccc3c2)c1 [compound 4] in this work.
An IC50 (Table 2, read-out: ROCK IC50) of 10 to 100 nM was found for NCCN(Cc1cccc(Cl)c1)C(=S)Nc1ccc2cnccc2c1 [compound 38] in this work.
An IC50 (Table 2, read-out: ROCK IC50) of 100 to 1000 nM was found for NCCN(Cc1cccc(F)c1)C(=O)Nc1ccc2cnccc2c1 [compound 16] in this work.
